# In ChEMBL document CHEMBL4325859, “Research advances on anticancer activities of matrine and its derivatives: An updated overview” (Eur J Med Chem, 2019):
# Tests used:
# Format in all cases: functional
# D341 cell line = assay: Growth inhibition of human D341 cells at 2 mg/ml after 24 hrs by CCK8 assay relative to control; conditions: D341, 24 h, read-out: GI
# HepG2 [1] = assay: Antiproliferative activity against human HepG2 cells at 1 mg/ml after 48 hrs by MTT assay relative to control
# U2OS = assay: Growth inhibition of human U2OS cells at 3.2 mg/ml after 48 hrs by MTT assay relative to control; conditions: read-out: GI
# HepG2 [2] = assay: Antiproliferative activity against human HepG2 cells at 1 mg/ml after 24 hrs by MTT assay relative to control
# [3] = Growth inhibition of human GRC1 cells at 0.3 g/L after 24 hrs by MTT assay relative to control; conditions: read-out: GI
# PC-3 = assay: Induction of apoptosis in human PC3 cells assessed as late apoptotic cells at […] (reference value: 2.5%)
# HT-29 = assay: Growth inhibition of human HT-29 cells at 4 ml/L after 48 hrs by MTT assay relative to control
# [4] = Growth inhibition of human GRC1 cells at 0.5 g/L after 24 hrs by MTT assay relative to control; conditions: read-out: GI
# HepG2 [5] = assay: Induction of apoptosis in human HepG2 cells at 1 mg/ml by Annexin V-FITC/propidium iodide staining based flow cytometry (reference value: 0.14%)
structure (smiles),measurement,setting,value
O=C1CCC[C@@H]2[C@H]3CCCN4CCC[C@@H](CN12)[C@@H]34 [MATRINE],inhibition of growth at 2000 µg/mL,D341 cell line,38%
same,Activity,HepG2 [1],14.81%
same,inhibition of growth at 3200 µg/mL,U2OS,77%
same,Activity,HepG2 [2],6.28%
same,inhibition of growth at 300 µg/mL,[3],6.3%
same,Activity,PC-3,20.5%
same,growth inhibition (GI),HT-29,54.22%
same,inhibition of growth at 500 µg/mL,[4],11.5%
same,Activity,HepG2 [5],34.36%
